# Measured values as given in patent US7932270B2 (Cytokinetics, Inc., priority 2006, dated 2011).
# Biological target: T1, chicken gizzard smooth muscle myosin subfragment-1 chemically crosslinked to cardiac or skeletal actin (Gallus gallus, UniProt P10587)
# T1 construct: chicken gizzard smooth muscle myosin subfragment-1; from tissue; host or cells: chicken gizzard
# Test: Smooth muscle myosin ATPase dose response assay (pyruvate kinase/horseradish peroxidase/pyruvate oxidase-coupled, amplex red fluorescence)
# Assay type: biochemical
# Conditions: read-out: IC50 Arithmetic Mean
# How it was run: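 Inhibition is measured in a peroxidase/pyruvate oxidase-linked format at pH 7.00 and 22° C, 0.15 mM ATP final. Myosin input is titrated to a target turnover since active fraction differs between preparations.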
# T1 sequence (P02607 2-151): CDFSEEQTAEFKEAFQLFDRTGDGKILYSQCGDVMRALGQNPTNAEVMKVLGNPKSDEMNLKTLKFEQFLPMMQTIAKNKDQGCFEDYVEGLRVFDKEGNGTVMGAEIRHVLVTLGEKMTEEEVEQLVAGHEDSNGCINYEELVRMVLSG
# T1 sequence (P10587 84-789): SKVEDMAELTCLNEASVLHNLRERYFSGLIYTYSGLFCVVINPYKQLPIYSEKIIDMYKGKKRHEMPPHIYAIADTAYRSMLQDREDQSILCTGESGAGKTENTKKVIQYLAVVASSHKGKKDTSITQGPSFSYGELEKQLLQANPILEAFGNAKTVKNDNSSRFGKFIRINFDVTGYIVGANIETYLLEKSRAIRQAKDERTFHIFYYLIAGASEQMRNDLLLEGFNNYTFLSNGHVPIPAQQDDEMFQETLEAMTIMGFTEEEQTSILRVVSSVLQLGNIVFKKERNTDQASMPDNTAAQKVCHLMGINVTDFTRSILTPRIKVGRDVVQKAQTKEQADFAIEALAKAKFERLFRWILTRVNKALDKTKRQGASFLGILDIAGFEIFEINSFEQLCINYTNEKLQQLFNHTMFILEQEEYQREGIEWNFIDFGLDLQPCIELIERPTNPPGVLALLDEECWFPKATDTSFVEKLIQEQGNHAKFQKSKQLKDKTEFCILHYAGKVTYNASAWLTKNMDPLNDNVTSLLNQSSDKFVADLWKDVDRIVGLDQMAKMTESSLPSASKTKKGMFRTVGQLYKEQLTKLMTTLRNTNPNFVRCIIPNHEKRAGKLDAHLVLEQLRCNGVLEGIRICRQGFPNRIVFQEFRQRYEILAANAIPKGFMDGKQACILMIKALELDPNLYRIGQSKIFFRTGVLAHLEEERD
row,Structure (SMILES),IC50
1,N[C@@H](CO)C(=O)N1CCCC1CNC(=O)c1cc(F)c(-c2cc[nH]n2)nc1NCCc1cccc(F)c1 (stereo partly drawn) [N-{[(2R)-1-((2S)-2-amino-3-hydroxypropanoyl)pyrrolidin-2-yl]methyl}(5-fluoro-2-{[2-(3-fluorophenyl)ethyl]amino}-6-pyrazol-3-yl(3-pyridyl))carboxamide],269 nM
2,N#Cc1ccccc1-c1ccc(C(=O)NC[C@H](N)C(N)=O)c(NCCc2cccc(F)c2)n1 [N-((2S)-2-amino-2-carbamoylethyl)(6-(2-cyanophenyl)-2-{[2-(3-fluorophenyl)ethyl]amino}(3-pyridyl))carboxamide],669 nM
3,Cn1cc(-c2nc(NCCc3cccc(F)c3)c(C(=O)NC[C@H]3CCN3C(=O)COC(=O)CNC(=O)OC(C)(C)C)cc2F)cn1 [2-((2R)-2-{[(5-fluoro-2-{[2-(3-fluorophenyl)ethyl]amino}-6-(1-methylpyrazol-4-yl)(3-pyridyl))carbonylamino]methyl}azetidinyl)-2-oxoethyl 2-[(tert-butoxy)carbonylamino]acetate],191 nM
4,C[C@H](N)CNC(=O)c1ccc(-c2ccccc2C#N)nc1NCCc1cccc(F)c1 [N-((2S)-2-aminopropyl)(6-(2-cyanophenyl)-2-{[2-(3-fluorophenyl)ethyl]amino}(3-pyridyl))carboxamide],515 nM
5,CC(C)(C)OC(=O)N1CC[C@@H]1CNC(=O)c1cc(F)c(-c2cn[nH]c2)nc1NCCc1cccc(F)c1 [tert-butyl (2R)-2-{[(5-fluoro-2-{[2-(3-fluorophenyl)ethyl]amino}-6-pyrazol-4-yl(3-pyridyl))carbonylamino]methyl}azetidinecarboxylate],289 nM
6,N#Cc1ccccc1-c1ccc(C(=O)NCC(=O)NCCO)c(NCCc2cccc(F)c2)n1 [2-[(6-(2-cyanophenyl)-2-{[2-(3-fluorophenyl)ethyl]amino}(3-pyridyl))carbonylamino]-N-(2-hydroxyethyl)acetamide],2070 nM
7,Cc1csc(-c2ccc(C(=O)NCc3cccnc3)c(NCCc3ccccn3)n2)c1 [{6-(4-methyl(2-thienyl))-2-[(2-(2-pyridyl)ethyl)amino](3-pyridyl)}-N-(3-pyridylmethyl)carboxamide],344 nM
8,CN(CCNC(=O)c1ccc(-c2ccccc2C#N)nc1NCCc1cccc(F)c1)S(C)(=O)=O [(6-(2-cyanophenyl)-2-{[2-(3-fluorophenyl)ethyl]amino}(3-pyridyl))-N-{2-[methyl(methylsulfonyl)amino]ethyl}carboxamide],1380 nM
9,N#Cc1ccccc1-c1ccc(C(=O)NC(CCCN)C(N)=O)c(NCCc2cccc(F)c2)n1 (centres unmarked) [N-(4-amino-1-carbamoylbutyl)(6-(2-cyanophenyl)-2-{[2-(3-fluorophenyl)ethyl]amino}(3-pyridyl))carboxamide],590 nM
10,"Cc1cc(C)n(CCNc2nc(-c3ccccc3)ccc2C(=O)NCc2cccnc2)n1 [(2-{[2-(3,5-dimethylpyrazolyl)ethyl]amino}-6-phenyl(3-pyridyl))-N-(3-pyridylmethyl)carboxamide]",6830 nM
11,C[C@H](CNC(=O)c1cc(F)c(-c2cnn(C)c2)nc1NCCc1cccc(F)c1)NC(=O)CCCN,116 nM
12,CC(C)(C)OC(=O)NCCCN1C(=O)CCCC1CNC(=O)c1ccc(-c2ccccc2C#N)nc1NCCc1cccc(F)c1 (centres unmarked) [N-[(1-{3-[(tert-butoxy)carbonylamino]propyl}-6-oxo(2-piperidyl))methyl](6-(2-cyanophenyl)-2-{[2-(3-fluorophenyl)ethyl]amino}(3-pyridyl))carboxamide],877 nM
13,COC(=O)[C@@H](C)NC(=O)c1ccc(-c2ccccc2C#N)nc1NCCc1cccc(F)c1 [methyl (2R)-2-[(6-(2-cyanophenyl)-2-{[2-(3-fluorophenyl)ethyl]amino}(3-pyridyl))carbonylamino]propanoate],743 nM
14,NC(=O)CCNC(=O)c1ccc(-c2ccc(CO)s2)nc1NCCc1cccc(F)c1 [N-(2-carbamoylethyl)(2-{[2-(3-fluorophenyl)ethyl]amino}-6-[5-(hydroxymethyl)(2-thienyl)](3-pyridyl))carboxamide],549 nM
15,Cn1cc(-c2ccc(C(=O)NCC3CCCCC(=O)N3)c(NCCc3cccc(F)c3)n2)cn1 (centres unmarked) [(2-{[2-(3-fluorophenyl)ethyl]amino}-6-(1-methylpyrazol-4-yl)(3-pyridyl))-N-[(7-oxoazaperhydroepin-2-yl)methyl]carboxamide],603 nM
16,CN1CCN[C@@H](CNC(=O)c2ccc(-c3ccccc3C#N)nc2NCCc2cccc(F)c2)C1 [N-[((2S)-4-methylpiperazin-2-yl)methyl](6-(2-cyanophenyl)-2-{[2-(3-fluorophenyl)ethyl]amino}(3-pyridyl))carboxamide],2920 nM
17,N#Cc1ccccc1-c1ccc(C(=O)NCc2ccc(N)nc2)c(NCCc2cccc(F)c2)n1 [N-[(6-amino(3-pyridyl))methyl](6-(2-cyanophenyl)-2-{[2-(3-fluorophenyl)ethyl]amino}(3-pyridyl))carboxamide],26 nM
18,COC(=O)CNC(=O)c1ccc(-c2ccccc2C#N)nc1NCCc1cccc(F)c1 [methyl 2-[(6-(2-cyanophenyl)-2-{[2-(3-fluorophenyl)ethyl]amino}-3-pyridyl)carbonylamino]acetate],101 nM

# Now from value to molecule:
row,IC50,Structure (SMILES)
1,433 nM,N#Cc1ccccc1-c1ccc(C(=O)NCC2CCN(C(=O)CCCN)C2)c(NCCc2cccc(F)c2)n1 (centres unmarked) [N-{[1-(4-aminobutanoyl)pyrrolidin-3-yl]methyl}(6-(2-cyanophenyl)-2-{[2-(3-fluorophenyl)ethyl]amino}(3-pyridyl))carboxamide]
2,72 nM,Cn1cc(-c2nc(NCCc3cccc(F)c3)c(C(=O)NC[C@H]3CCCN3C(=O)[C@@H](N)CO)cc2F)cn1 [N-{[(2R)-1-((2S)-2-amino-3-hydroxypropanoyl)pyrrolidin-2-yl]methyl}(5-fluoro-2-{[2-(3-fluorophenyl)ethyl]amino}-6-(1-methylpyrazol-4-yl)(3-pyridyl))carboxamide]
3,10600 nM,O=C(NCc1cccnc1)c1ccc(-c2ccccc2)nc1NCCN1CCCC1=O [(2-{[2-(2-oxopyrrolidinyl)ethyl]amino}-6-phenyl(3-pyridyl))-N-(3-pyridylmethyl)carboxamide]
4,1190 nM,CC(C)(C)OC(=O)NCc1cccc(CNC(=O)c2ccc(-c3ccccc3C#N)nc2NCCc2cccc(F)c2)n1
5,4060 nM,Cc1cscc1-c1ccc(C(=O)NCc2cccnc2)c(NCCc2ccccn2)n1 [{6-(4-methyl(3-thienyl))-2-[(2-(2-pyridyl)ethyl)amino](3-pyridyl)}-N-(3-pyridylmethyl)carboxamide]
6,198 nM,O=C(NCc1cccnc1)c1ccc(-c2ccc(F)cc2)nc1NCCc1cccc(F)c1 [(6-(4-fluorophenyl)-2-{[2-(3-fluorophenyl)ethyl]amino}(3-pyridyl))-N-(3-pyridylmethyl)carboxamide]
7,5550 nM,CNC(=O)[C@H](CNC(=O)c1ccc(-c2ccccc2C#N)nc1NCCc1cccc(F)c1)NC(C)=O [(2S)-2-(acetylamino)-3-[(6-(2-cyanophenyl)-2-{[2-(3-fluorophenyl)ethyl]amino}(3-pyridyl))carbonylamino]-N-methylpropanamide]
8,186 nM,COC(=O)[C@H](C)CNC(=O)c1ccc(-c2ccccc2C#N)nc1NCCc1cccc(F)c1 [methyl (2R)-3-[(6-(2-cyanophenyl)-2-{[2-(3-fluorophenyl)ethyl]amino}(3-pyridyl))carbonylamino]-2-methylpropanoate]
